Results reported in patent US12378211B2, “Carbonic anhydrase inhibitors and antibiotics against multidrug resistant bacteria” (Purdue Research Foundation, priority 2018, dated 2025).
Converted amounts (≈) assume the structure as drawn. Read-outs that look alike come from different tables or passages of the source. Each block holds one compound with its values, some of them ahead of it.

Key:
[1] = tested on: Mutant-13 of Enterococcus fecalis NR 31975; assay: microbe, parasite or virus in culture; type: cell-based; conditions: Enterococcus
[2] = tested on: Mutant-7 of Enterococcus fecalis NR 31975; assay: microbe, parasite or virus in culture; type: cell-based; conditions: Enterococcus
[3] = tested on: MRSA NRS 384 (MRSA USA300); assay: MIC against Staphylococci, broth microdilution; type: cell-based, Staphylococcus aureus; conditions: Staphylococcus aureus; TSB; read-out: MIC
Experimental: (§1) The minimum inhibitory concentrations (MICs) of the compounds and control drugs were determined using the broth microdilution method, according to guidelines outlined by the Clinical and Laboratory Standards Institute (CLSI) 1. Staphylococci strains were grown aerobically overnight on tryptone soya agar plates at 37° C., afterwards a bacterial solution equivalent to 0.5 McFarland standard was prepared and diluted in tryptone soy broth (TSB) to achieve a bacterial concentration of about 5×10^5 CFU/mL and seeded in 96-well well plates. Compounds and control drugs were added in the first row of the 96-well plates and serially diluted along the plates. Plates were then incubated aerobically at 37° C. for 18-20 hours. MICs reported in Table 2 are the minimum concentration of the compounds/control drugs that could inhibit completely the visual growth of the bacteria.

[4] = tested on: Mutant-11 of Enterococcus fecalis NR 31975; assay: microbe, parasite or virus in culture; type: cell-based; conditions: Enterococcus
[5] = tested on: Mutant-3 of Enterococcus fecalis NR 31975; assay: microbe, parasite or virus in culture; type: cell-based; conditions: Enterococcus
[6] = tested on: Bacteroides dorei—CL02T12C06 HM-719; assay: MIC against human normal gut microbiota; type: cell-based; conditions: Bacteroides; BHIS broth, anaerobic, 48 hours; read-out: MIC
Experimental: (§2) Three different bacterial strains were used in this experiment; Bifidobacterium (anaerobic Gram positive bacteria), Bacteroides (anaerobic Gram negative bacteria) and Lactobacillus (microaerophilic Gram positive bacteria). Bifidobacterium and Bacteroides were first grown for 48 hours at 37° C., anaerobically using brain heart infusion supplemented (BHIS) agar (Brain heart infusion agar supplemented with hemin, vitamin K and L-cysteine). Lactobacillus was cultivated on MRS agar and incubated in presence of 5% CO2 for 48 hours at 37° C. Each bacterium was suspended in phosphate buffered saline (PBS) to produce a suspension with optical density that matches 0.5 McFarland standard and diluted in brain heart infusion supplemented broth (for Bifidobacterium and Bacteroides) or in MRS broth (for Lactobacillus) to achieve bacterial concentration of approximately 5×10^5 CFU/ml. Bacteria were then seeded in 96-well plates containing serial dilutions of the compounds and incubated as mentioned previously for 48 hours.

[7] = tested on: Lactobacillus casei ATCC 334; assay: MIC against human normal gut microbiota; type: cell-based; conditions: Lacticaseibacillus casei, ATCC334; MRS broth, 5% CO2, 48 hours; read-out: MIC
Experimental: as §2

[8] = tested on: Bifidobacterium longum subsp. Longum—44B HM 845; assay: MIC against human normal gut microbiota; type: cell-based; conditions: Bifidobacterium longum; BHIS broth, anaerobic, 48 hours; read-out: MIC
Experimental: as §2

[9] = tested on: Bifidobacterium breve—JCP7499 HIM 1120; assay: MIC against human normal gut microbiota; type: cell-based; conditions: Bifidobacterium; BHIS broth, anaerobic, 48 hours; read-out: MIC
Experimental: as §2

[10] = tested on: Bacteroides fragilis—CL07T00C01 HIM-709; assay: MIC against human normal gut microbiota; type: cell-based; conditions: Bacteroides; BHIS broth, anaerobic, 48 hours; read-out: MIC
Experimental: as §2

[11] = tested on: Lactobacillus gasseri EX336960VC03 HIM-400; assay: MIC against human normal gut microbiota; type: cell-based; conditions: Lactobacillus gasseri; MRS broth, 5% CO2, 48 hours; read-out: MIC
Experimental: as §2

[12] = tested on: Mutant-9 of Enterococcus fecalis NR 31975; assay: microbe, parasite or virus in culture; type: cell-based; conditions: Enterococcus
[13] = tested on: Mutant-6 of Enterococcus fecalis NR 31975; assay: microbe, parasite or virus in culture; type: cell-based; conditions: Enterococcus
[14] = tested on: Mutant-8 of Enterococcus fecalis NR 31975; assay: microbe, parasite or virus in culture; type: cell-based; conditions: Enterococcus
[15] = tested on: Staphylococcus epidermidis NRS 101; assay: MIC against Staphylococci, broth microdilution; type: cell-based; conditions: Staphylococcus epidermidis, NRS101; TSB; read-out: MIC
Experimental: as §1

[16] = tested on: Mutant-2 of Enterococcus fecalis NR 31975; assay: microbe, parasite or virus in culture; type: cell-based; conditions: Enterococcus
[17] = tested on: Mutant-14 of Enterococcus fecalis NR 31975; assay: microbe, parasite or virus in culture; type: cell-based; conditions: Enterococcus
[18] = tested on: Mutant-15 of Enterococcus fecalis NR 31975; assay: microbe, parasite or virus in culture; type: cell-based; conditions: Enterococcus
[19] = tested on: Enterococcus faecium E417-HM-965; assay: MIC, broth microdilution in TSB; type: cell-based; conditions: Enterococcus faecium, E417HM965, TSB
Experimental: as §1, with “Institute (CLSI). Enterococci” for “Institute (CLSI) 1. Staphylococci”, “Table 1” for “Table 2”

[20] = tested on: Enterococcus faecium Patient #2-1-NR-31909; assay: MIC, broth microdilution in TSB; type: cell-based; conditions: Enterococcus faecium, TSB
Experimental: as §1, with “Institute (CLSI). Enterococci” for “Institute (CLSI) 1. Staphylococci”, “Table 1” for “Table 2”

[21] = tested on: Mutant-12 of Enterococcus fecalis NR 31975; assay: microbe, parasite or virus in culture; type: cell-based; conditions: Enterococcus
[22] = tested on: Mutant-5 of Enterococcus fecalis NR 31975; assay: microbe, parasite or virus in culture; type: cell-based; conditions: Enterococcus
[23] = tested on: Mutant-4 of Enterococcus fecalis NR 31975; assay: microbe, parasite or virus in culture; type: cell-based; conditions: Enterococcus
[24] = tested on: Enterococcus faecium E417-HM-965; assay: MIC of CAIs in BHIB and TSB; type: cell-based; conditions: Enterococcus faecium, read-out: MIC
Experimental: (§3) The minimum inhibitory concentrations (MICs) of CAIs were tested against clinical isolates of vancomycin sensitive and vancomycin resistant Enterococci strains as per the guidelines provided by the Clinical and Laboratory Standards Institute (CLSI). The selected strains of Enterococci were streaked on Tryptic Soy Agar (TSA) plates and let grow for 24 hours at 37° C. Afterwards, a bacterial solution equivalent to 0.5 McFarland standard was prepared and diluted in tryptone soy broth (TSB) or brain heart infusion broth (BHIB) to achieve a bacterial concentration of about 5×10^5 CFU/mL and seeded in 96-well well plates. Compounds and control drugs were added in the first row of the 96-well plates and serially diluted along the plates. Plates were then incubated aerobically at 37° C. for 18-20 hours. MICs reported in Table 5 are the minimum concentration of the compounds/control drugs that could inhibit completely the visual growth of the bacteria.

[25] = tested on: Enterococcus faecium Patient #2-1-NR-31909; assay: MIC of CAIs in BHIB and TSB; type: cell-based; conditions: Enterococcus faecium, read-out: MIC
Experimental: as §3

[26] = tested on: Enterococcus fecalis Strain SF 24397 NR31970; assay: MIC of CAIs in BHIB and TSB; type: cell-based; conditions: Enterococcus, read-out: MIC
Experimental: as §3

[27] = tested on: Enterococcus faecalis—S613 HM-334; assay: MIC of CAIs in BHIB and TSB; type: cell-based; conditions: Enterococcus, read-out: MIC
Experimental: as §3, with “bacteria. The MIC values of CAIs against the tested VRE strains were higher in BHIB than in TSB. This may be due to binding of these drugs to proteins. […] They inhibited the VRE strains at MIC values ranging from 1 to 4 μg/mL.” for “bacteria.”

gut microbiota = tested on: gut microbiota; design: species or system C57BL/6 mice; conditions: mouse, in vivo, po, 10 mg/kg
Experimental: CAIs had no major impact on microbiota composition. An extremely promising and innovative feature of CAIs is their narrow spectrum of activity and their ability to decolonize VRE without harming the microbiome. […] To characterize the impact of CAIs administration on the composition of the gut microbiota we performed the following assay6. Female 12-week-old C57BL/6 mice (n=5 mice per group) were exposed to CAIs by oral gavage for 10 days (10 mg/kg daily). Twenty-four hours after last dose, mice were euthanized and cecal and colon contents were harvested. The microbiome was characterized using 16S rDNA gene sequencing. The microbiotas from treated mice were compared to those from a group of control mice. […] However, at the phylum level, we observed decrease in Firmicutes in CAIs treatment groups and likely due to decrease of enterococci as enterococcus is a large genus of the phylum Firmicutes. The Verrucomicrobia and Bacteroidetes remain constant while other phyla increase to fill the remaining percentage from Firmicute loss. […] Indeed, the use of traditional antibiotics can increase the selective pressure and contribute to the selection of other multi-drug-resistant organisms (Kofteridis D. et al., Int J Infect Dis 2009, 13, e313-315).

[28] = tested on: Enterococcus faecalis-S613 HM-334; assay: MIC in presence of 4% human serum albumin; type: cell-based; conditions: Enterococcus; TSB supplemented with 4% human serum albumin; read-out: MIC
Experimental: as §3, with “against” for “against clinical isolates of vancomycin sensitive and”, “resistant Enterococcus faecalis—S613 HM 334 strain” for “resistant Enterococci strains”, “selected strain was” for “selected strains of Enterococci were”, “(TSA) plate” for “(TSA) plates”, “(TSB) supplemented with 4% human serum albumin (HAS)” for “(TSB) or brain heart infusion broth (BHIB)”, “in table (6)” for “in Table 5”

[29] = tested on: vancomycin-resistant E. faecium; assay: Mouse model of GI colonization by VRE; type: in vivo, C57BL/6 mice; conditions: 10 mg/kg by oral gavage for 8 days; feces as early as 3rd day
Text: Feasibility in vivo study: AZM reduces VRE load in the intestines and faeces. The promising feature, and the specific and potent antimicrobial activity of CAIs, prompted us to evaluate the in vivo efficacy of AZM in our established mouse model of GI colonization by enterococci with features that mimic the antibiotic-induced enterococcal expansion observed in humans (Mohammad, H. et al., Int J Antimicrob Agents 2018, 51, 897-904; Abdelkhalek, A, et al., PLoS One 2018, 13, e0199710). We tested AZM (two clinical doses 10 and 20 mg/kg) in female 12-week-old C57BL/6 mice (n=5 mice per group) that were sensitized with ampicillin ([…] in drinking water) for 7 days to reduce the microbiota present in the gastrointestinal tract and colonized with 10^8 CFU/mL of vancomycin-resistant E. faecium.
We thought that the rapid absorption of AZM from the gastrointestinal tract would limit their exposure time to VRE present in the gastrointestinal tract.
Mice were treated for 8 days with 10 mg/kg of drugs by oral gavage.

[30] = Preliminary in vivo toxicity study; conditions: 200 mg/kg twice daily (400 mg/kg daily) for three days

Compound: CCCC(=O)Nc1nnc(S(N)(=O)=O)s1 [CAI0013, N-(5-Sulfamoyl-1,3,4-thiadiazol-2-yl) butyramide]
MIC [1]: 16 µg/mL (≈ 63.9 µM)
MIC [2]: 8 µg/mL (≈ 32 µM)
MIC [3]: > 64 µg/mL
MIC [4]: 8 µg/mL (≈ 32 µM)
MIC [5]: 16 µg/mL (≈ 63.9 µM)
MIC [6]: > 64 µg/mL
MIC [7]: > 64 µg/mL
MIC [8]: > 64 µg/mL
MIC [9]: > 64 µg/mL
MIC [10]: > 64 µg/mL
MIC [11]: > 64 µg/mL
MIC [12]: 8 µg/mL (≈ 32 µM)
MIC [13]: 8 µg/mL (≈ 32 µM)
MIC [14]: 16 µg/mL (≈ 63.9 µM)
MIC [15]: > 64 µg/mL
MIC [16]: 8 µg/mL (≈ 32 µM)
MIC [17]: 8 µg/mL (≈ 32 µM)
MIC [18]: 16 µg/mL (≈ 63.9 µM)
MIC ([19]; Table 1, read-out: MIC): 0.5 µg/mL (≈ 2 µM)
MIC ([19]; Table 7, read-out: MIC in TSB): 0.5 µg/mL (≈ 2 µM)
MIC ([20]; Table 1, read-out: MIC): 0.5 µg/mL (≈ 2 µM)
MIC ([20]; Table 7, read-out: MIC in TSB): 0.5 µg/mL (≈ 2 µM)
MIC [21]: 8 µg/mL (≈ 32 µM)
MIC [22]: 16 µg/mL (≈ 63.9 µM)
MIC [23]: 16 µg/mL (≈ 63.9 µM)

MIC ([24]; E417HM965, BHIB): 128 µg/mL
MIC ([24]; E417HM965, TSB, Table 5): 16 µg/mL
MIC ([25]; BHIB): > 128 µg/mL
MIC ([25]; TSB, Table 5): 8 µg/mL
MIC ([26]; BHIB): > 128 µg/mL
MIC ([26]; TSB, Table 5): 8 µg/mL
MIC ([27]; BHIIB): > 128 µg/mL
MIC ([27]; TSB, Table 5): 8 µg/mL
taxonomic structure and composition of microbiota (gut microbiota): no major shift or change
MIC [28]: > 256 µg/mL
Compound: CCN[C@H]1C[C@H](C)S(=O)(=O)c2sc(S(N)(=O)=O)cc21 [Dorzolamide]

Compound: NS(=O)(=O)c1nnc(NCc2ccccc2C(F)(F)F)s1 [analog 8, 5-((2-(trifluoromethyl)benzyl)amino)-1,3,4-thiadiazole-2-sulfonamide]
reduction of VRE in the feces, cecum and ileum [29]: superior to AZM and linezolid
signs of distress or toxicity [30]: None of the mice exhibited any signs of distress or toxicity
